pIC50: −log10 of the molar value.
How the values were obtained:
Kv1.3 [1] = molecular target: T1, Kv1.3 (Rattus norvegicus, UniProt P15384); settings: C-terminal amidation; cited from earlier work
[2] = system: voltage-gated K+ channels; settings: rat brain synaptosomal membranes; read-out: IC50 competition with 125I-kaliotoxin binding; cited from earlier work
[3] = system: rat brain synaptosomal membranes; settings: cited from earlier work
rat Kv1.3 channels = rat Kv1.3 channels (Rattus norvegicus, UniProt P15384); settings: Lebrun B et al., 1997; read-out: IC50 inhibition of rat Kv1.3 channels; cited from earlier work
Kv1.1 = Kv1.1 (Homo sapiens, UniProt Q09470); settings: Kv1.1 complex; cited from earlier work
Kv1.3 [4] = molecular target: T1, Kv1.3; settings: Kv1.3 complex; cited from earlier work
mKv1.1 channels = molecular target: T2, mKv1.1 channels (Mus musculus, UniProt P16388); assay: Whole-cell patch-clamp block of Kv1.1 channels in L929 cells; assay type: cell-based; settings: for current block on Kv1.1 channels: 100 nM, n=3, preliminary
T2 construct: expressed in transfected cells
Method: Cells and Cell Lines—L929 mouse fibroblast cells stably expressing mKv1.1 and mKv1.3 channels (Grissmer S et al., 1994) were maintained in DMEM medium (Invitrogen Corporation, Carlsbad, Calif., United States of America) supplemented with 100 IU/mL penicillin, 0.1 μg/mL streptomycin, 2 mM L-glutamine, 10% heat-inactivated foetal bovine serum, and 0.5 mg/mL G418 (EMD Chemicals, Gibbstown, N.J., United States of America).
Electrophysiological Analysis—Experiments were conducted at room temperature in the whole-cell configuration of the patch-clamp technique. A manual setup and an automated Port-a-patch setup (Nanion, North Brunswick, N.J., United States of America) were used in parallel, both linked to a HEKA EPC10USB amplifier. […] The bath solution contained (in mM): 160 NaCl, 4.5 KCl, 2 CaCl2, 1 MgCl2, 10 HEPES, pH 7.2, 300 mOsm. Kv currents were elicited every 30 s by 200-ms depolarising pulses from a holding potential of −80 mV to 40 mV. Kd values and Hill coefficients were determined by fitting the Hill equation to the reduction of peak current measured at 40 mV.

T2 sequence (P16388 whole entry): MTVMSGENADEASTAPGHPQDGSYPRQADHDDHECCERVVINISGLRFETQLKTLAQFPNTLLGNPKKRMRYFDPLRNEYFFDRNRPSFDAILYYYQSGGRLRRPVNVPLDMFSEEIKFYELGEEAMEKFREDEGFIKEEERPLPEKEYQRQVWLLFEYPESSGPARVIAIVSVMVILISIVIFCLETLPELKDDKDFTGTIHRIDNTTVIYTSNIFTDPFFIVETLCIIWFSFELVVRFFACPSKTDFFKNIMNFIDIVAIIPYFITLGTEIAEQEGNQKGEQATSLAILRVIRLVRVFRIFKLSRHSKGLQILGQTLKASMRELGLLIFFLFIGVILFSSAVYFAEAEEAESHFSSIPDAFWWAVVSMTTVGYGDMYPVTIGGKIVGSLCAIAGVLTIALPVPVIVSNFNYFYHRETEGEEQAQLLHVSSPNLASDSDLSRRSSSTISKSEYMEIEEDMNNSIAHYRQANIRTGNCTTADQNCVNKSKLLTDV
T1 sequence (P15384 whole entry): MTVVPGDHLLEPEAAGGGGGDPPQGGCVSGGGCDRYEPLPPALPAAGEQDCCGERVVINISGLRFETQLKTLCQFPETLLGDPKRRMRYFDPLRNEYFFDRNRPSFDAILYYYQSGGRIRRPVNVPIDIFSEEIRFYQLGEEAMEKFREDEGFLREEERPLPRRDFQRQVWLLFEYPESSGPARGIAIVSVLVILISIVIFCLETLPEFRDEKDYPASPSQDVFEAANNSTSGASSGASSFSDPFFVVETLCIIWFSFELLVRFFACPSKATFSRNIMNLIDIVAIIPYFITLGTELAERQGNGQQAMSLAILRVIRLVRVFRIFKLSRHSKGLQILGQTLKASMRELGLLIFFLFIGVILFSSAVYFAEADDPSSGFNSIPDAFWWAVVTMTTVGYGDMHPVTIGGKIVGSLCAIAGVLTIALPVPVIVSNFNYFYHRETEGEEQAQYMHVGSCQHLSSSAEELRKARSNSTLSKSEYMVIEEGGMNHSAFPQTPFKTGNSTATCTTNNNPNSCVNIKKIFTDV
Kv1.1, sequence (Q09470 whole entry): as the sequence (P16388 whole entry) above, with A9V, T14A, I202V, T213N, I449M, A471V, G476A, D482N counted along it
rat Kv1.3 channels, sequence (P15384 whole entry): as the sequence (P15384 whole entry) above

Molecule	affinity for Kv1.3 of amidated form compared to synthetic carboxylated form (Kv1.3 [1])	pIC50 [2]	competition with 125I-apamin binding [3]	pIC50 (rat Kv1.3 channels)	Gb (exp) experimental binding free energy (Kv1.1) [kcal/mol]	Gb (exp) experimental binding free energy (Kv1.3 [4]) [kcal/mol]	pIC50 (mKv1.1 channels)	current block on Kv1.1 channels (mKv1.1 channels)
ASCRTPKDCADPCRKETGCPYGKCMNRKCKCNRC [HsTX1]	five-fold greater affinity for Kv1.3	~12.00	did not compete	~10.92	-11.1 ± 0.1	-14.9 ± 0.2		
CC[C@@H]1NC(=O)[C@@H]2CSSC[C@@H]3NC(=O)[C@H](CCCCN)NC(=O)[C@@H]4CSSC[C@H](NC(=O)[C@H](CC(=O)O)NC(=O)[C@H](CCCCN)NC(=O)[C@@H]5CCCN5C(=O)[C@H]([C@@H](C)O)NC(=O)[C@H](CCCNC(=N)N)NC(=O)[C@@H](NC(=O)[C@H](CO)NC(=O)[C@H](C)N)CSSC[C@H](NC(=O)[C@H](CCCCN)NC(=O)CNC(=O)[C@H](Cc5ccc(O)cc5)NC(=O)[C@@H]5CCCN5C(=O)[C@H](CSSC[C@@H](C(N)=O)NC(=O)[C@H](CCCNC(=N)N)NC(=O)[C@H](CC(N)=O)NC3=O)NC(=O)CNC(=O)[C@H]([C@@H](C)O)NC(=O)[C@H](CCC(=O)O)NC(=O)[C@H](CCCCN)NC1=O)C(=O)N[C@@H](CCSC)C(=O)N[C@@H](CC(N)=O)C(=O)N[C@@H](CCCNC(=N)N)C(=O)N[C@@H](CCCCN)C(=O)N4)C(=O)N[C@@H](C)C(=O)N[C@@H](CC(=O)O)C(=O)N1CCC[C@H]1C(=O)N2 [HsTX1[R14Abu], ASCRTPKDCADPCXKETGCPYGKCMNRKCKCNRC]							< 7.00	15-20%
CSCC[C@@H]1NC(=O)[C@@H]2CSSC[C@H](NC(=O)[C@H](CO)NC(=O)[C@H](C)N)C(=O)N[C@@H](CCCNC(=N)N)C(=O)N[C@@H]([C@@H](C)O)C(=O)N3CCC[C@H]3C(=O)N[C@@H](CCCCN)C(=O)N[C@@H](CC(=O)O)C(=O)N[C@H]3CSSC[C@H](NC(=O)[C@H](CCCCN)NC(=O)[C@H](CCCNC(=N)N)NC(=O)[C@H](CC(N)=O)NC1=O)C(=O)N[C@@H](CCCCN)C(=O)N[C@H]1CSSC[C@H](NC(=O)[C@@H]4CCCN4C(=O)[C@H](CC(=O)O)NC(=O)[C@H](C)NC3=O)C(=O)N[C@@H](C)C(=O)N[C@@H](CCCCN)C(=O)N[C@@H](CCC(=O)O)C(=O)N[C@@H]([C@@H](C)O)C(=O)NCC(=O)N[C@@H](CSSC[C@@H](C(N)=O)NC(=O)[C@H](CCCNC(=N)N)NC(=O)[C@H](CC(N)=O)NC1=O)C(=O)N1CCC[C@H]1C(=O)N[C@@H](Cc1ccc(O)cc1)C(=O)NCC(=O)N[C@@H](CCCCN)C(=O)N2 [HsTX1[R14A]]							< 7.00	10-16%
